SMILES strings stand for the structures.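 Growth conditions: 96-well plates. Treatment: test compound, 48 hours, 5 concentrations. Analysis: linear interpolation between bracketing concentrations; unreached endpoints set to highest concentration. Abbreviation: GI50, concentration required for 50% inhibition of growth.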 Activity calls are given as the source filed them. No stated cut-off is given here; in the data, active = GI50 up to about 1.1 µM and inactive = higher.

Common to all, as to assay: NCI-60 cell line screen, 48 h
Assay [1] deals with NCI-H23.
The test system of assay [2] is UACC-62.
Assay [3] deals with MDA-MB-231.
In assay [4] the test system is Hs-578T.
Assay [5] concerns HCT-15.
Assay [6] concerns CAKI-1.
Assay [7] relates to SN12C.
In assay [8] the test system is OVCAR-8.
Assay [9] deals with NCI-H226.
The subject of assay [10] is RXF 393.
Assay [11] concerns UACC-257.
Assay [12] concerns MDA-MB-435.
For assay [13], the system named is OVCAR-4.
Assay [14] has as its system A549.
The subject of assay [15] is SK-MEL-28.
Assay [16] deals with MCF7.
Assay [17] relates to SW-620.
Assay [18] deals with MDA-N.
Assay [19] relates to SK-MEL-2.
In assay [20] the test system is MOLT-4.

Turning to `Clc1ccc(CSCc2ccc(Cl)cc2Cl)c(Cl)c1`, the GI50 in assay [1] is 78.5 µM (inactive); in assay [2], 50 µM (inactive); in assay [3] it was > 100 µM (inactive); in assay [4] it was 79.4 µM (inactive); in [5], 32.2 µM; in [6] it was 86.1 µM (inactive). Besides, the GI50 in assay [7] is > 100 µM (inactive); in [8], > 100 µM (inactive); in [9], > 100 µM (inactive); in assay [10], 20 µM (inactive); in assay [11], 25.6 µM (inactive); in assay [12], 41 µM (inactive). Besides, the GI50 in assay [13] was 36.4 µM (inactive); in assay [14], 34.3 µM (inactive); in [15], 79.6 µM (inactive); in [16] it was 27.7 µM (inactive); in assay [17], 42.8 µM (inactive); in [18], 38.8 µM (inactive). Further, the GI50 is 21.3 µM (inactive) in [19] and 19.4 µM (inactive) in [20].
Take `O=S(=O)(/N=C(\NO)Nc1ccc(Cl)cc1)C1CC=C(c2ccon2)S1` (centres undefined): the GI50 in [1] is 13.2 µM (inactive); in assay [2], 24.5 µM (inactive); in [3] it was 18.4 µM (inactive); in assay [4], 14.7 µM (inactive); in [5], 15.5 µM; in [6], 2.39 µM (inactive). Besides, the GI50 in assay [7] is 18.2 µM (inactive); in assay [8], 8.77 µM (inactive); in assay [9], 13.4 µM (inactive); in assay [10] it was 6.31 µM (inactive); in assay [11] it was 12.5 µM (inactive); in assay [12], 8.91 µM (inactive). The GI50 in assay [13] was 3.52 µM (inactive); in [14], 32.1 µM (inactive); in [15], 23.5 µM (inactive); in assay [16], 16.1 µM (inactive); in assay [17], 5.78 µM (inactive); in assay [18] it was 6.04 µM (inactive). Moreover, the GI50 in assay [19] was 13.3 µM (inactive); in assay [20] it was 3.34 µM (inactive).
`COc1cc2c(c(OC)c1)C(=O)O[C@H](C)CCCC/C=C/C2`: the GI50 in [1] is 11.2 µM (inactive); in assay [2], 8.93 µM (inactive); in assay [3], 10.9 µM (inactive); in assay [4], 20.9 µM (inactive); in [5], 10.2 µM; in [6] it was 10.4 µM (inactive). Also, the GI50 is 7.14 µM (inactive) in [7]; 33.3 µM (inactive) in assay [8]; 45.6 µM (inactive) in assay [9]; 9.95 µM (inactive) in assay [10]; 10.9 µM (inactive) in [11]; 4.73 µM (inactive) in [12]. The GI50 was 12.1 µM (inactive) in [13]; 30.6 µM (inactive) in assay [14]; 23.2 µM (inactive) in assay [15]; 11.6 µM (inactive) in assay [16]; 7.94 µM (inactive) in assay [17]; 8.63 µM (inactive) in [18]. The GI50 is 12.1 µM (inactive) in [19] and 7.31 µM (inactive) in assay [20].
As for `CCCCc1ccc(Nc2nc3c(ncn3C3CC(O)C(CN=[N+]=[N-])O3)c(=O)[nH]2)cc1` (centres undefined), the GI50 was > 100 µM (inactive) in assay [1]; > 100 µM (inactive) in assay [2]; > 100 µM (inactive) in [3]; > 100 µM (inactive) in [4]; over 100 µM in [5]; > 100 µM (inactive) in [6]. In addition, the GI50 in assay [7], in [8], in assay [9], in [10], in assay [11] and in assay [12] was > 100 µM (inactive) throughout. The GI50 in [13], in assay [14], in [15], in assay [16], in [17] and in assay [18] was > 100 µM (inactive) in each case. The GI50 in [19] and in [20] was > 100 µM (inactive) in each case.
In the case of `O=c1[nH]c2ccc(CC(=S)N3CCN(c4ccccc4)CC3)cc2o1`, the GI50 in [1] is > 100 µM (inactive); in [2], > 66.4 µM (inactive); in assay [3] it was > 100 µM (inactive); in assay [4], > 54.2 µM (inactive); in assay [5], 66.2 µM; in assay [6], 97.9 µM (inactive). Moreover, the GI50 in assay [7] is > 100 µM (inactive); in assay [8] it was > 79.1 µM (inactive); in assay [9], > 42 µM (inactive); in assay [10] it was > 100 µM (inactive); in assay [11], > 100 µM (inactive); in assay [12] it was 54.5 µM (inactive). The GI50 is > 100 µM (inactive) in assay [13]; 85.3 µM (inactive) in assay [14]; > 100 µM (inactive) in [15]; > 100 µM (inactive) in assay [16]; > 100 µM (inactive) in [17]; > 49.9 µM (inactive) in assay [18]. Besides, the GI50 in assay [19] is > 100 µM (inactive); in [20], > 80.7 µM (inactive).
As to `Nc1ncnc2c1ccn2CC=C(CO)CO`, the GI50 in assay [1] is > 100 µM (inactive); in assay [2], > 100 µM (inactive); in [3], > 100 µM (inactive); in assay [4], > 100 µM (inactive); in assay [5] it was over 100 µM; in [6], > 100 µM (inactive). The GI50 in assay [7] was > 100 µM (inactive); in [8] it was > 100 µM (inactive); in assay [9] it was 8.07 µM (inactive); in assay [10] it was > 100 µM (inactive); in [11], > 100 µM (inactive); in assay [12] it was > 100 µM (inactive). In addition, the GI50 in assay [13], in assay [14], in assay [15], in assay [16], in assay [17] and in [18] was > 100 µM (inactive) each time. Also, the GI50 in [19] and in assay [20] was > 100 µM (inactive) in each case.
Take `CCOC(=O)c1nc2ccc(C(F)(F)F)cc2nc1Oc1ccc(OC)cc1`: the GI50 in [2] is > 100 µM (inactive); in assay [3], > 100 µM (inactive); in assay [4] it was > 100 µM (inactive); in assay [5] it was over 100 µM; in [6], 9.42 µM (inactive); in assay [7] it was > 100 µM (inactive). The GI50 in [8], in assay [9], in [10], in assay [11], in assay [12] and in assay [13] was > 100 µM (inactive) in each case. In addition, the GI50 in assay [14], in assay [15], in assay [16], in assay [17], in assay [18] and in [19] was > 100 µM (inactive) each time. Further, the GI50 in assay [20] is > 100 µM (inactive).

The values above are taken from ChEMBL document CHEMBL1201862, “PubChem BioAssay data set” (2004).
